Laboratory results reported in PubChem BioAssay AID2060599 (Molecular Pharmacology Branch, DTP, NCI, 2025).
Values joined by “and” are separate entries in the source; they are usually repeats but may differ in a detail not shown here. Equal entries are not always repeated. Each block holds one molecule with its values, some of them ahead of it.

Test system: 817829-284-R-J1-PDC complex spheroids, viability
Experiment: Anticancer human tumor 817829-284-R-J1-PDC patient-derived colon adenocarcinoma cell line growth inhibition [CLK]
Settings: for viability, T/C: stronger effect = lower value
In short: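 Patient-derived tumor cells grown as complex spheroids with HUVEC endothelial cells and mesenchymal stem cells, treated with drug combinations. Concentrations descend in half-log steps from near clinical Cmax, or from 10 microM if Cmax unknown.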

[1] = curve of first compound, second compound 0.0316 µM
[2] = curve of first compound, second compound 0.1 µM
[3] = curve of first compound, second compound 0.316 µM
[4] = curve of first compound, second compound 1 µM
[5] = curve of first compound, second compound 3.16 µM
[6] = curve of first compound, second compound 10 µM
[7] = second compound 0.0316 µM, first compound 0.0316 µM
[8] = second compound 0.0316 µM, first compound 0.1 µM
[9] = second compound 0.0316 µM, first compound 0.316 µM
[10] = second compound 0.0316 µM, first compound 1 µM
[11] = second compound 0.0316 µM, first compound 3.16 µM
[12] = second compound 0.0316 µM, first compound 10 µM
[13] = second compound 0.1 µM, first compound 0.0316 µM
[14] = second compound 0.1 µM, first compound 0.1 µM
[15] = second compound 0.1 µM, first compound 0.316 µM
[16] = second compound 0.1 µM, first compound 1 µM
[17] = second compound 0.1 µM, first compound 3.16 µM
[18] = second compound 0.1 µM, first compound 10 µM
[19] = second compound 0.316 µM, first compound 0.0316 µM
[20] = second compound 0.316 µM, first compound 0.1 µM
[21] = second compound 0.316 µM, first compound 0.316 µM
[22] = second compound 0.316 µM, first compound 1 µM
[23] = second compound 0.316 µM, first compound 3.16 µM
[24] = second compound 0.316 µM, first compound 10 µM
[25] = second compound 1 µM, first compound 0.0316 µM
[26] = second compound 1 µM, first compound 0.1 µM
[27] = second compound 1 µM, first compound 0.316 µM
[28] = second compound 1 µM, first compound 1 µM
[29] = second compound 1 µM, first compound 3.16 µM
[30] = second compound 1 µM, first compound 10 µM
[31] = second compound 3.16 µM, first compound 0.0316 µM
[32] = second compound 3.16 µM, first compound 0.1 µM
[33] = second compound 3.16 µM, first compound 0.316 µM
[34] = second compound 3.16 µM, first compound 1 µM
[35] = second compound 3.16 µM, first compound 3.16 µM
[36] = second compound 3.16 µM, first compound 10 µM
[37] = second compound 10 µM, first compound 0.0316 µM
[38] = second compound 10 µM, first compound 0.1 µM
[39] = second compound 10 µM, first compound 0.316 µM
[40] = second compound 10 µM, first compound 1 µM
[41] = second compound 10 µM, first compound 3.16 µM
[42] = second compound 10 µM, first compound 10 µM
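Also: spheroids exposed to the agents for seven days before readout.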

Structure (SMILES): CC(Nc1ccc2c(c1)OCCn1cc(N3C(=O)OCC3C(F)F)nc1-2)C(N)=O (stereo unspecified) + CN1CCN(c2cc(C(=O)Nc3cc4cc(-c5cnn(C)c5)ccc4cn3)ccn2)CC1
- IC50 [1]: 3240 nM
- IC50 [2]: < 31.6 nM
- IC50 [3]: < 31.6 nM
- IC50 [4]: < 31.6 nM
- IC50 [5]: < 31.6 nM
- IC50 [6]: < 31.6 nM
- viability, T/C [7]: 53.4%
- viability, T/C [8]: 55.5%
- viability, T/C [9]: 56.8%
- viability, T/C [10]: 48.1%
- viability, T/C [11]: 51.4%
- viability, T/C [12]: 22.9%
- viability, T/C [13]: 20.4%
- viability, T/C [14]: 19.2%
- viability, T/C [15]: 17%
- viability, T/C [16]: 16.8%
- viability, T/C [17]: 14.3%
- viability, T/C [18]: 10.7%
- viability, T/C [19]: 1.57%
- viability, T/C [20]: 1.34%
- viability, T/C [21]: 0.89%
- viability, T/C [22]: 0.83%
- viability, T/C [23]: 0.72%
- viability, T/C [24]: 0.96%
- viability, T/C [25]: 0.08%
- viability, T/C [26]: 0.11%
- viability, T/C [27]: 0.12%
- viability, T/C [28]: 0.07%
- viability, T/C [29]: 0.09%
- viability, T/C [30]: 0.11%
- viability, T/C [31]: 0.12%
- viability, T/C [32]: 0.15%
- viability, T/C [33]: 0.15%
- viability, T/C [34]: 0.15%
- viability, T/C [35]: 0.17%
- viability, T/C [36]: 0.14%
- viability, T/C [37]: 0.07%
- viability, T/C [38]: 0.08%
- viability, T/C [39]: 0.13%
- viability, T/C [40]: 0.11%
- viability, T/C [41]: 0.24%
- viability, T/C [42]: 0.14%

- IC50 [1]: < 31.6 nM
- IC50 [2]: < 31.6 nM
- IC50 [3]: < 31.6 nM
- IC50 [4]: < 31.6 nM
- IC50 [5]: < 31.6 nM
- IC50 [6]: < 31.6 nM
Structure (SMILES): O=C(c1cc(Cc2n[nH]c(=O)c3ccccc23)ccc1F)N1CCN(C(=O)C2CC2)CC1 + CNC(=O)c1ccc(Nc2nc(OC3CCCC3)c3c(-c4ccc5nc(C)oc5c4)c[nH]c3n2)c(OC)c1
- viability, T/C [7]: 30.4%
- viability, T/C [8]: 42.9%
- viability, T/C [9]: 38%
- viability, T/C [10]: 26.7%
- viability, T/C [11]: 31.5%
- viability, T/C [12]: 22.4%
- viability, T/C [13]: 24.2%
- viability, T/C [14]: 19.2%
- viability, T/C [15]: 30.9%
- viability, T/C [16]: 22.9%
- viability, T/C [17]: 24.2%
- viability, T/C [18]: 24.6%
- viability, T/C [19]: 26.9%
- viability, T/C [20]: 22%
- viability, T/C [21]: 27.7%
- viability, T/C [22]: 31.5%
- viability, T/C [23]: 25%
- viability, T/C [24]: 17.2%
- viability, T/C [25]: 22.3%
- viability, T/C [26]: 20.1%
- viability, T/C [27]: 20%
- viability, T/C [28]: 17.8%
- viability, T/C [29]: 16.9%
- viability, T/C [30]: 14.7%
- viability, T/C [31]: 21.9%
- viability, T/C [32]: 20.9%
- viability, T/C [33]: 19.4%
- viability, T/C [34]: 25.5%
- viability, T/C [35]: 18.5%
- viability, T/C [36]: 22%
- viability, T/C [37]: 21.9%
- viability, T/C [38]: 22.9%
- viability, T/C [39]: 30.8%
- viability, T/C [40]: 18.1%
- viability, T/C [41]: 15.8%
- viability, T/C [42]: 15.3%

- IC50 (curve of compound): 7960 nM and > 10000 nM
Structure (SMILES): CC(CO)NC(=O)c1cc(-c2ccc(Cl)cc2)nn(-c2cnn(C)c2)c1=O (stereo unspecified)
- viability, T/C (compound 0.0316 µM): 119% and 99.1%
- viability, T/C (compound 0.1 µM): 68.1% and 82.7%
- viability, T/C (compound 0.316 µM): 102% and 165%
- viability, T/C (compound 1 µM): 108% and 100%
- viability, T/C (compound 3.16 µM): 79.3% and 88.4%
- viability, T/C (compound 10 µM): 42.8% and 52.4%
